Assay results from US20220273662A1, “USE OF SILDENAFIL AND ROCK INHIBITORS FOR TREATING STROKE OR SEQUELAE FOLLOWING STROKE” (SOONCHUNHYANG UNIVERSITY INDUSTRY ACADEMY COOPERATION …, priority 2019, published 2022).
Where a name gives a salt, the structure may show the parent alone.

Assays:
Type in all cases: in vivo, Sprague-Dawley male rats
[1] = system: MCAo30 acute stroke (cerebral infarction) model; experiment: Measurement of infarction volume (TTC staining) after middle cerebral artery occlusion; conditions: relative to MCAo30 (100% stroke range basis); i.p. sildenafil citrate 20 mg/kg and/or GSK429286A 10 mg/kg, 30 min before or after reperfusion; combination value for both before/after groups
Method: 8-week-old Sprague-Dawley male rats weighing 260 to 280 g were used as experimental animals, and the experimental animals were obtained from the Experimental Animal Center, at Soonchunhyang University (Cheonan). All experimental animals were arbitrarily provided with commercially available feed and water under specific temperature, humidity and lighting conditions (light-dark cycle 12:12, 22±2° C., 55±5%). All animal protocols were approved by the Administrative Panel on Laboratory Animal Care of Soonchunhyang University (permit No. SCH16-0024). In performing experiments related to the present invention, all possible efforts were made to prevent the suffering of the experimental animals and to minimize the number of experimental animals used during the experiments. […] Finally, images were produced from TTC-stained coronal section brain slices using a model DP72 digital camera and DP2-BSW microscope digital camera software (Olympus, Japan), the area of ischemic brain damage in each brain slice was measured using image analysis software (ImageJ, NIH, USA). […] The volume of total cerebral infarction was the sum of the core and the ischemic penumbra, the damaged volume was calculated as an average percentage of the hemispherical volume, and the volume of edema was adjusted with reference to the results of previous studies. […]

[2] = system: MCAo30 acute stroke (cerebral infarction) model; experiment: Open field test (locomotor activity); conditions: normal control = 100% (MCAo30 57.4%), combination given after reperfusion
Method: 8-week-old Sprague-Dawley male rats weighing 260 to 280 g were used as experimental animals, and the experimental animals were obtained from the Experimental Animal Center, at Soonchunhyang University (Cheonan). All experimental animals were arbitrarily provided with commercially available feed and water under specific temperature, humidity and lighting conditions (light-dark cycle 12:12, 22±2° C., 55±5%). […] In performing experiments related to the present invention, all possible efforts were made to prevent the suffering of the experimental animals and to minimize the number of experimental animals used during the experiments. […] More specifically, the following experimental drugs were each intraperitoneally administered 30 minutes before reperfusion after middle cerebral artery occlusion and 30 minutes after reperfusion after middle cerebral artery occlusion. i) sildenafil citrate (20 mg/kg/saline, Hanmi Parm. […] An open field black box (60×60×40 cm; length, width, height) was placed in an isolated room without clues, and the experimental animals were placed in the central area of the open field box under diffused light. The distance traveled by the experimental animals was recorded and analyzed for 30 minutes using Ethovision® software, which is a PC-based video motion analysis system. […]

[3] = system: MCAo30 acute stroke (cerebral infarction) model; experiment: Light-dark box test (anxiety level); conditions: normal control = 100% (MCAo30 62.08%), combination given after reperfusion
Method: 8-week-old Sprague-Dawley male rats weighing 260 to 280 g were used as experimental animals, and the experimental animals were obtained from the Experimental Animal Center, at Soonchunhyang University (Cheonan). All experimental animals were arbitrarily provided with commercially available feed and water under specific temperature, humidity and lighting conditions (light-dark cycle 12:12, 22±2° C., 55±5%). All animal protocols were approved by the Administrative Panel on Laboratory Animal Care of Soonchunhyang University (permit No. SCH16-0024). […] More specifically, the following experimental drugs were each intraperitoneally administered 30 minutes before reperfusion after middle cerebral artery occlusion and 30 minutes after reperfusion after middle cerebral artery occlusion. i) sildenafil citrate (20 mg/kg/saline, Hanmi Parm. Co., Republic of Korea) ii) GSK429286A (10 mg/kg/DMSO, Sigma, USA) iii) sildenafil citrate (20 mg/kg/saline) and GSK429286A (10 mg/kg/DMSO) A light-dark box (45×27×27 cm; length, width, height) was divided into two compartments, and more specifically, three-fifths was a bright compartment and two-fifths was a dark compartment. Each compartment was connected by a 9×9 cm entrance located on the floor. […] Here, sildenafil and the ROCK inhibitor were co-administered after reperfusion after middle cerebral artery occlusion.

[4] = system: MCAo30 acute stroke (cerebral infarction) model; experiment: Barnes maze test (cognitive function, escape time); conditions: compared to normal control, MCAo30 about 3-fold longer than normal control
Method: All experimental animals were arbitrarily provided with commercially available feed and water under specific temperature, humidity and lighting conditions (light-dark cycle 12:12, 22±2° C., 55±5%). […] Co., Republic of Korea) ii) GSK429286A (10 mg/kg/DMSO, Sigma, USA) iii) sildenafil citrate (20 mg/kg/saline) and GSK429286A (10 mg/kg/DMSO) A Barnes maze consisted of a circular platform (122 cm in diameter) with 20 holes around the same distance and elevated 105 cm from the floor. Four different visual cues were placed on each quadrant wall surrounding the platform at a height that makes it easy to observe experimental animals, and one hole (escape hole) in the quadrant area includes an escape chamber under the platform. Further, bedding was added to the escape chamber for the safety of experimental animals. […] More specifically, a metronome was used to generate 80 Hz noise and to maintain the illuminance measured at the center of the platform at 300 lux. […] 10 seconds later, when the cylinder was removed, the experimental animal explored the platform from the center and this activity was recorded by a video camera. […] The distance and duration traveled from the quadrant area where the escape chamber connected to the escape hole is located was analyzed by Ethovision® software, and the waiting time to reach the escape chamber connected to the escape hole was manually analyzed.

[5] = system: MCAo30 acute stroke (cerebral infarction) model; experiment: Measurement of fEPSP slope (synaptic plasticity, hippocampal CA1 LTP); conditions: for fEPSP slope: MCAo30 84.11%
Method: 8-week-old Sprague-Dawley male rats weighing 260 to 280 g were used as experimental animals, and the experimental animals were obtained from the Experimental Animal Center, at Soonchunhyang University (Cheonan). All experimental animals were arbitrarily provided with commercially available feed and water under specific temperature, humidity and lighting conditions (light-dark cycle 12:12, 22±2° C., 55±5%). […] More specifically, the following experimental drugs were each intraperitoneally administered 30 minutes before reperfusion after middle cerebral artery occlusion and 30 minutes after reperfusion after middle cerebral artery occlusion. i) sildenafil citrate (20 mg/kg/saline, Hanmi Parm. Co., Republic of Korea) ii) GSK429286A (10 mg/kg/DMSO, Sigma, USA) iii) sildenafil citrate (20 mg/kg/saline) and GSK429286A (10 mg/kg/DMSO) Field potentials (fEPSP) were recorded at a slightly modified part from CA1 of the hippocampus. After a behavioral test, the animals were anesthetized intraperitoneally using urethane (1.5 g/kg) and placed in a stereotaxic frame. The rectal temperature during surgery was maintained at 37±0.3° C. using a temperature controller (Harvard Instruments, USA). Next, the scalp was opened and separated, and a hole was made through the skull to introduce electrodes. The coordinates (in mm) based on bregma (a junction of the coronal suture and the sagittal suture in the skull) are as follows. […] The depth of the electrodes was finally determined by observing whether the induced response was optimized. The fEPSP was adjusted to about 60% of the maximum response size for testing, and stimuli were generated by a BNC-2110 apparatus (National Instruments, USA) and a Digital Stimulus Isolation unit (Getting Instruments, CA, USA). The response of pyramidal neurons to the Schaffer collateral stimulus was recorded using a [MUT].C. pre-amplifier (3-1000 Hz bandpass, Astro-Med Inc.) and analyzed using […] . […] A stable baseline was recorded for 30 minutes to 60 minutes. […] The response of fEPSP for the age-matched control was also measured using the same method.

Compound | damage to brain tissue after the onset of stroke (infarction volume) [1] [%] | locomotor activity [2] [%] | time in which rats stayed in a bright place compared to the normal control [3] [%] | escape time (in words) [4] | fEPSP slope ([5]; administered after reperfusion after middle cerebral artery occlusion) [%] | fEPSP slope ([5]; administered before reperfusion after middle cerebral artery occlusion) [%] | fold improved fEPSP slope, group after reperfusion compared to group before reperfusion ([5]; sildenafil alone, after vs before reperfusion)
CC1=C(C(=O)Nc2cc3cn[nH]c3cc2F)C(c2ccc(C(F)(F)F)cc2)CC(=O)N1 (stereo not shown) [ROCK inhibitor, N-(6-fluoro-1H-indazol-5-yl)-6-methyl-2-oxo-4-[4-(trifluoromethyl)phenyl]-3,4-dihydro-1H-pyridine-5-carboxamide] | 21.28 | 71 | 84.26 | level similar to that of the normal control |  |  | 
CCCc1nn(C)c2c(=O)[nH]c(-c3cc(S(=O)(=O)N4CCN(C)CC4)ccc3OCC)nc12 [sildenafil, sildenafil citrate] | 26.71 | 70.8 | 63.63 |  | 158.31 | 102.35 | about 4.06 fold
